Test results from patent US11827624B2, “Covalent immune recruiter compounds for immune cell recognition and associated uses” (McMaster University, priority 2020, dated 2023).
Where “and” joins values, the source holds several entries; their conditions need not be identical. Equal entries are not always repeated.

Columns and labels:
[1] = tested on: humanized anti-DNP SPE7 (mmAb); test: BLI covalent labeling kinetics assay on IgG Fc capture probes, mmAb; type: binding
Protocol: Kinetic assays to characterize the second order rate constant (kinact/KI) describing the CIR+Ab labeling reaction involved incubating increasing concentrations of CIR 3 or CIR 5 with a fixed concentration (75 nM) of anti-DNP mmAb in solution, for different periods of time. PSMA binding to CIR-Ab complexes increases the total mass associated with the probe surface leading to signal increases (nm shift). CIR 3 (500 nM) and 75 nM of either mmAb or mAb (AcroBiosystems Catalog #DNP-M2) was reacted in 1× Kinetics Buffer (ForteBio) for four hours prior to the experiment. IgG Fc capture (ProG) probes from ForteBio were placed in 1× Kinetics Buffer for 20 minutes prior to the experiment for wetting. The experiment was conducted using an Octet Red96 (ForteBio), where the acquisition rate was set to 5 Hz and the temperature was held at 25° C. The plate shaker setting was 1000 RPM. A volume of 250 μL of each solution was loaded onto a black flat-bottom 96-well plate (Grenier). The experiment began by placing the ProG probes in 1×Kinetics Buffer for four minutes to establish a baseline. Next, the probes were placed into the CIR 3 and anti-DNP antibody reaction mixture to load the covalent complex (CIR-Ab) onto the probe. Next, the probes were placed in a solution of 5 mM DNP-glycine competitor in 1×Kinetics Buffer in order to disrupt any non-covalent or non-specific binding. The baseline was re-established by then placing the probes in 1× Kinetics Buffer for 0.5 minutes. To measure PSMA association, the probes were placed in a solution of 500 nM human PSMA protein in 1× Kinetics Buffer for 10 minutes. The probes were then placed in 1×Kinetics Buffer for 10 minutes to measure dissociation. The raw nm shift signal for the association and dissociation step obtained by the Octet Red96 was first baselined to the beginning of the association step (t=0 second) by subtracting the association signal at t=0 from the measured signal at each time point. The Kd was determined by fitting both the association and dissociation curves using the ‘association then dissociation’ binding model in GraphPad Prism 8. The experiment was repeated once for a total of two replicates.
The specific labelling of an antibody by a CIR occurs via a two-step mechanism. In the first step, the CIR binds to the antibody via its ABD and forms a reversible complex. […] This second order rate constant was determined by monitoring covalent product (CIR-Ab) formation as a function of time via BLI using IgG Fc capture probes (note: a non-specific labeling reaction occurs independent of binding to the DNP binding site with any biological nucleophile and follows second order kinetics without saturation). […]

anti-DNP IgG = test: Modified octet solution labelling kinetics assay with PSMA coated probes; type: binding, rabbit
Protocol: To determine the kinetics of CIR 3 covalent labelling of anti-DNP IgG, a modified octet protocol was developed to accommodate the weaker binding affinity of glutamate urea on CIR 3 for biotinylated PSMA, which was loaded onto streptavidin coated octet probes in these experiments. First, streptavidin probes from ForteBio were placed in wells each containing 250 μl solutions composed of 100 nM biotinylated PSMA in kinetics Buffer (1×) spiked with 1% (v/v) DMSO for 20 minutes in an Octet Red96 instrument. The RPM was 1000, the temperature was held at 30° C., and the acquisition rate was 5 Hz. Following washing and baseline steps described above, the probes were then placed in a solution containing 200 nM CIR 3+100 nM anti-DNP IgG (Ab) that already had been allowed to react for varying amounts of time away from the octet instrument to form CIR 3-Ab, followed by quenching with 1 mM DNP-Glycine competitor to disrupt non covalent complex [CIR 3:Ab]. The association of CIR 3-Ab (already formed in solution) with PSMA coated probe was monitored, and the initial rates and final signal plateau measured as a function of the concentration of CIR 3-Ab formed with incubation time away from the octet instrument in solution. […]

O=C(O)CC[C@H](NC(=O)N[C@@H](CCCCNC(=O)NCCOCCOCCOCCOCCOCCOCCOCCOC(=O)n1cnc(CCNC(=O)CNc2ccc([N+](=O)[O-])cc2[N+](=O)[O-])c1)C(=O)O)C(=O)O [CIR 3]
covalent reaction selectivity at excess CIR ([1]; 20-fold excess (1.5 μM), mAb and mmAb): high covalent reaction selectivity for the DNP hapten binding site on both mAb and mmAb was observed
Kinact/Kl ^c ([1]; mmAb): 12000 ± 1000 M⁻¹ s⁻¹
Kinact^c ([1]; mmAb, 75 nM antibody): 4.0 × 10^−4 ± 0 s^−1
Ki ([1]; mmAb, read-out: Kl ^c): ~30 nM and 30 nM
pseudo intramolecular complex labelling rate constant k=kobs/0.5 (anti-DNP IgG; 200 nM CIR 3 + 100 nM anti-DNP IgG): 0.51 h⁻¹
rate constant k2 (anti-DNP IgG; solution labelling, PSMA coated probes): 0.00014 s⁻¹
